Literature values, collected in the CATMoS acute toxicity set (Mansouri et al. 2021).
“And” between values parts separate entries of the source, which are not always exact repeats. Equal values may be shown once.

Test: rat acute oral toxicity
Conditions: in vivo

Row | SMILES | LD50
1 | CN(C)CCOc1ccc(/C(=C(/CCCl)c2ccccc2)c2ccccc2)cc1 | 1700 mg/kg and 3000 mg/kg
2 | Cc1nnc(NS(=O)(=O)c2ccc(N)cc2)s1 | 3500 mg/kg
3 | CCc1occc(=O)c1O | 1150 mg/kg
4 | CC(=O)C(N=Nc1cc(Cl)c(-c2cc(Cl)c(N=NC(C(C)=O)C(=O)Nc3ccc(C)cc3C)cc2Cl)cc1Cl)C(=O)Nc1ccc(C)cc1C (stereo unspecified) | 2230 mg/kg
5 | CN(C)CCC=C1c2ccccc2CS(=O)c2sccc21 (stereo unspecified) | 319 mg/kg
6 | CN1C(=O)C2C=CC1c1ccccc12 (stereo unspecified) | 806 mg/kg
7 | COC(=O)C1=C(C)NC(C)=C(C(=O)OCC(C)C)C1c1ccccc1[N+](=O)[O-] (stereo unspecified) | 1260 mg/kg
8 | O=C1CCCN1CCO | 14400 mg/kg
9 | O=C(O)c1cccnc1C(=O)O | 1550 mg/kg
10 | CCOC(=O)C(SP(=O)(OC)OC)c1ccccc1 (stereo unspecified) | 63 mg/kg
11 | S=C1NCCNC(=S)S1 | 240 mg/kg
12 | CCc1ccc(C(=O)c2ccccc2)c(C(=O)O)c1 | 4450 mg/kg
13 | CCCn1c(=O)[nH]c(=O)c2[nH]cnc21 | 481 mg/kg
14 | O=C1N(Cl)C2C(N1Cl)N(Cl)C(=O)N2Cl (stereo unspecified) | 2150 mg/kg
15 | O=C(CCC1CCN(Cc2ccccc2)CC1)c1ccc2c(c1)NCCCC2 | 334 mg/kg
16 | CC(=O)CNC(C)(C)Cc1ccc(Cl)cc1 | 250 mg/kg
17 | O=C(O)Cc1ccc(OCC2CC2)c(Cl)c1 | 895 mg/kg
18 | C=CCc1ccc(OC(=O)NC)c(OC)c1 | 250 mg/kg
19 | COP(=O)(OC)OC | 840 mg/kg
20 | FC(F)(F)c1nc2c(Cl)c(Br)c(Cl)c(Br)c2[nH]1 | 3.43 mg/kg
21 | CC(C)COC(=O)c1ccccc1O | 1560 mg/kg
22 | CN(C)CCC=C(c1ccccc1)c1ccc(C(F)(F)F)cc1 | 1000 mg/kg
23 | Cc1cc(O)c(C(C)(C)C)cc1Sc1cc(C(C)(C)C)c(O)cc1C | 2340 mg/kg
24 | CC(C)=CCCC(C)CC#N (stereo unspecified) | 5300 mg/kg
25 | CCOP(=O)(OCC)Oc1ccc2ccc(=O)oc2c1 | 29 mg/kg

Row | SMILES | LD50
26 | C=CCNC(=O)ON=C1SCOC1C (stereo unspecified) | 453 mg/kg
27 | COc1cc2c(cc1OC)[C@@H]1C(=O)c3ccc4c(c3O[C@@H]1CO2)C[C@H](C(C)C)O4 | 2500 mg/kg
28 | CCCCc1c(C)nc(NCC)nc1O | 4000 mg/kg
29 | CC=CCO | 793 mg/kg
30 | Nc1ccc(Oc2ccc(S(=O)(=O)c3ccc(Oc4ccc(N)cc4)cc3)cc2)cc1 | 220 mg/kg
31 | CCCOC(=O)c1cc(O)c(O)c(O)c1 | 2100 mg/kg
32 | COC(=O)CCBr | 1600 mg/kg
33 | CCOP(=O)(OCC)SCn1nc(C)ccc1=O | 6.5 mg/kg
34 | O=C1CCc2cc(C(O)CCCN3CCN(c4cccc(Cl)c4)CC3)ccc2N1 (stereo unspecified) | 500 mg/kg
35 | NCCOCCO | 3000 mg/kg
36 | CCC1(CC)COC(=O)NC1=O | 71 mg/kg
37 | CCNc1nc(NC(C)(C)C)nc(OC)n1 | 433 mg/kg
38 | CN(C)N=Nc1ccc(Br)cc1 | 423 mg/kg
39 | C1CCCCC1 | 12700 mg/kg
40 | CCOC(C1=NCC(C)(C)CN1)c1ccc(C(C)C)cc1 (stereo unspecified) | 220 mg/kg
41 | O=C(O)c1cccc(Cl)c1Cl | 300 mg/kg
42 | c1ccc(Oc2nncc3ccccc23)cc1 | 1000 mg/kg
43 | Cc1cc(C=Cc2ccc3cc(N(C)C)ccc3[n+]2C)c(C)n1-c1ccccc1 | 161 mg/kg
44 | Oc1ccc2ccccc2c1Cl | 2310 mg/kg
45 | NC(=S)Nc1cc(Cl)ccc1Cl | 300 mg/kg
46 | C=C(/C=C/C)C1=C(C)CCCC1(C)C | 2920 mg/kg
47 | CCCCOC(=S)S | 456 mg/kg
48 | CC(O)CN(CC(C)O)c1nc(Nc2ccc(C=Cc3ccc(Nc4nc(Nc5cc(S(=O)(=O)O)ccc5S(=O)(=O)O)nc(N(CC(C)O)CC(C)O)n4)cc3S(=O)(=O)O)c(S(=O)(=O)O)c2)nc(Nc2cc(S(=O)(=O)O)ccc2S(=O)(=O)O)n1 (stereo unspecified) | 12100 mg/kg
49 | C[N+](C)(C)CCBr | 190 mg/kg
50 | CCN(CC)C(=S)Sc1nc2ccccc2s1 | 6000 mg/kg

Row | SMILES | LD50
51 | CCC(C)S (stereo unspecified) | 5180 mg/kg
52 | CN(C)N=Nc1ccc(I)cc1 | 574 mg/kg
53 | CCOC(=O)[N-]c1c[n+](N2CCOCC2)no1 | 1050 mg/kg
54 | CCCCCCCC/C=C\CCCCCCCC(=O)NCCS(=O)(=O)O | 4000 mg/kg
55 | CC(C)COCC(CN(Cc1ccccc1)c1ccccc1)N1CCCC1 (stereo unspecified) | 6850 mg/kg
56 | ClCC(Cl)(Cl)CCl | 6300 mg/kg
57 | NCCC[C@H](N)C(=O)O | 10000 mg/kg
58 | CCN(CC)CCOc1ccc2c(c1)C(=O)c1cc(OCCN(CC)CC)ccc1-2 | 852 mg/kg
59 | CC(=O)O[C@]1(C)CC[C@@]23C[C@@H]1C(C)(C)[C@@H]2CC[C@H]3C | 44800 mg/kg
60 | C=CC(=O)Nc1ccc(O)cc1 | 930 mg/kg
61 | CN(C)c1ccc(N)cc1 | 48 mg/kg
62 | Cc1ncsc1C | 960 mg/kg
63 | COc1cc(OC)nc(NC(=O)NS(=O)(=O)c2cc(NC=O)ccc2C(=O)N(C)C)n1 | 3880 mg/kg
64 | c1ccc(N2CCOCC2)cc1 | 930 mg/kg
65 | CN1CCC23c4c5ccc(O)c4OC2C(N=[N+]=[N-])CCC3(O)C1C5 (stereo unspecified) | 190 mg/kg
66 | C/N=C/Nc1ccc(Cl)cc1C | 264 mg/kg
67 | CCOC(=O)Nc1ccc2c(c1)N(C(=O)CCN1CCN(CCO)CC1)c1ccccc1CC2 | 147 mg/kg
68 | CC(C)NCC(O)COC(C)c1ccccc1 (stereo unspecified) | 540 mg/kg
69 | O=C1CN=C(c2ccccc2)c2cc([N+](=O)[O-])ccc2N1 | 825 mg/kg
70 | COC(=NC#N)OC | 1500 mg/kg
71 | CC(C)C1=Nc2ccccc2C1=C(N)c1cccnc1 | 350 mg/kg
72 | CN(CCO)c1ccccc1 | 2830 mg/kg
73 | C=CC(OC(C)=O)OC(C)=O | 35 mg/kg
74 | CCCn1c(C)cc(OP(=S)(OCC)OCC)cc1=O | 9.75 mg/kg
75 | CCCOP(=O)(OCCC)Oc1ccc2c(C)c(Cl)c(=O)oc2c1 | 80 mg/kg

Row | SMILES | LD50
76 | CCCCC(O)c1ccccc1 (stereo unspecified) | 5430 mg/kg
77 | O=C(O)C[C@H](NC(=O)COc1ccc(Cl)cc1Cl)C(=O)O | 1000 mg/kg
78 | COc1cc(C(=O)OCCCCN2CCN(c3ccccc3)CC2)cc(OC)c1OC | 2500 mg/kg
79 | CCC(C)OC(C[n+]1ccccc1)c1ccccc1 (stereo unspecified) | 250 mg/kg
80 | CCCCC(CC)COP(=O)(O)O (stereo unspecified) | 3450 mg/kg
81 | Cc1cc(C)cc(C(=O)Cl)c1 | 3160 mg/kg
82 | Cc1ccccc1N=Nc1c(N)ccc2ccccc12 | 120 mg/kg
83 | NC(=O)Cc1c([O-])on[n+]1Cc1ccccc1 | 4450 mg/kg
84 | C=Cc1ccc(C)nc1 | 1170 mg/kg
85 | CCCCOC(CBr)c1ccccc1 (stereo unspecified) | 250 mg/kg
86 | CC(=O)NNC(=O)c1ccccn1 | 673 mg/kg
87 | CC(Cl)(CCl)C(=O)O (stereo unspecified) | 8000 mg/kg
88 | CCCCCCCCCCCCCC[n+]1ccc(C)cc1 | 250 mg/kg
89 | O=NN(c1cccc(C(F)(F)F)c1)c1ccccc1C(=O)O | 900 mg/kg
90 | CN1CCN=C(c2ccccc2)c2cc(Cl)ccc21 | 900 mg/kg
91 | CCN(CCO)c1ccc(N=O)c(C)c1 | 336 mg/kg
92 | CCCc1c(OCCCCc2nnn[nH]2)ccc(C(C)=O)c1O | 650 mg/kg
93 | COc1cc(S(C)=O)ccc1-c1nc2ncccc2[nH]1 (stereo unspecified) | 315 mg/kg
94 | C[C@H](Oc1ccc(Oc2nc3ccc(Cl)cc3o2)cc1)C(=O)O | 2090 mg/kg
95 | C1OCC(COCC2COCO2)O1 (stereo unspecified) | 5150 mg/kg
96 | O=S(=O)(O)c1ccc2c(/N=N\c3ccc(S(=O)(=O)O)c4ccccc34)c(O)c(S(=O)(=O)O)cc2c1 | 6000 mg/kg
97 | Cc1ccccc1C(=O)Nc1cccc(OC(C)C)c1 | 10000 mg/kg
98 | COC(=S)SSC(Cl)(Cl)Cl | 1540 mg/kg
99 | CC(C(=O)O)c1ccc2c(c1)Cc1cccnc1O2 (stereo unspecified) | 59.5 mg/kg
100 | OCCCc1ccccc1 | 2300 mg/kg

Row | SMILES | LD50
101 | Nc1cc2c(cc1C1CCCCC1)CCC2C(=O)O (stereo unspecified) | 54 mg/kg
102 | CCOP(=S)(OCC)Oc1ccc([N+](=O)[O-])cc1Cl | 10 mg/kg
103 | NC1CCS(=O)(=O)C1 (stereo unspecified) | 17900 mg/kg
104 | OC(CBr)C(O)C(O)C(O)CBr (stereo unspecified) | 1000 mg/kg
105 | Cc1ccc2c(-c3cccc(O)c3)nc(=O)n(C(C)C)c2c1 | 1600 mg/kg
106 | CC=CC(C)OC (stereo unspecified) | 1210 mg/kg
107 | CCS(=O)CCOP(=O)(OC)OC=C(Cl)Cl (stereo unspecified) | 110 mg/kg
108 | O=C(NNC1OC(C(=O)O)C(O)C(O)C1O)c1ccncc1 (stereo unspecified) | 20300 mg/kg
109 | COc1c2occc2c(OC)c2c(=O)cc(C)oc12 | 68.8 mg/kg
110 | Cc1ccc2ccc(=O)oc2c1 | 3800 mg/kg
111 | O=C(CO)Nc1ccccc1 | 1700 mg/kg
112 | CCCCOCCCOC(=O)COc1ccc(Cl)cc1Cl | 500 mg/kg
113 | OC1CC2CC1C1CC3OC3C21 (stereo unspecified) | 3130 mg/kg
114 | C=CCn1c(C)c(N(C)C)c(=O)n(-c2ccccc2)c1=O | 2400 mg/kg
115 | CC(=O)N1N=C(c2ccc(N)cc2)c2cc3c(cc2CC1C)OCO3 (stereo unspecified) | 200 mg/kg
116 | CCOP(=O)(OCC)Sc1ccc([N+](=O)[O-])cc1 | 4.41 mg/kg
117 | CN(CCn1cnc2c1c(=O)n(C)c(=O)n2C)c1ccccc1 | 2880 mg/kg
118 | CC(=O)CCCCCCCC(=O)O | 3100 mg/kg
119 | OCC1CC2CC1C1CCC(CO)C21 (stereo unspecified) | 2250 mg/kg
120 | CCCCCCc1ccc(C(C[n+]2ccccc2)OCC(CC)CCCC)cc1 (stereo unspecified) | 250 mg/kg
121 | CN1CCOC(c2ccccc2)c2ccccc2C1 (stereo unspecified) | 80 mg/kg
122 | CCOC(=O)NNc1nncc2ccccc12 | 318 mg/kg and 598 mg/kg
123 | C=CC=NNc1ccccc1 | 700 mg/kg
124 | CC(=O)Nc1ccc(C(=O)CCl)cc1 | 2150 mg/kg
125 | CCCCOc1ccccc1NC(C)=O | 2900 mg/kg

Row | SMILES | LD50
126 | N/C(=N\c1c([N+](=O)[O-])cnc2ccccc12)N1CCOCC1 | 4000 mg/kg
127 | CCCCn1c(=O)n(CCC)c(=O)c2[nH]c(C)nc21 | 15 mg/kg
128 | O=C1C(=O)c2ncccc2-c2cccnc21 | 5 mg/kg
129 | CC1NC(=O)c2ccccc2O1 (stereo unspecified) | 1020 mg/kg
130 | CCOP(=S)(OCC)SCCC(F)=C(F)F | 681 mg/kg
131 | CC(C)c1cccc(C(C)C)c1N=C=O | 1410 mg/kg
132 | O=C(/C=C/C=C/c1ccc2c(c1)OCO2)N1CCCCC1 | 514 mg/kg
133 | N=C(NN=Cc1ccc(Cl)cc1)NN=Cc1ccc(Cl)cc1 | 1350 mg/kg
134 | O=C1CC2(CCCC2)CC(=O)N1CCCCN1CCN(c2ncccn2)CC1 | 196 mg/kg
135 | Clc1ccccc1C(c1ccccc1)(c1ccccc1)n1ccnc1 | 708 mg/kg
136 | O=COCCCc1ccccc1 | 4090 mg/kg
137 | CCC(=O)Nc1cccc(OC(=O)NC)c1 | 1000 mg/kg
138 | O=S(=O)(O)c1cccc2c(/N=N/c3ccc(/N=N/c4ccc(Nc5ccccc5)c5c(S(=O)(=O)O)cccc45)c4ccccc34)cccc12 | 15000 mg/kg
139 | CCCCCCCCCCCCCCSC#N | 15000 mg/kg
140 | CN1CC(CC(C#N)C(N)=O)CC2c3cccc4[nH]cc(c34)CC21 (stereo unspecified) | 1000 mg/kg
141 | Cc1cccc(N2CCN(CC=Cc3ccc4c(c3)CCC(=O)N4)CC2)c1 | 500 mg/kg
142 | ClCCOCCOCCOCCCl | 180 mg/kg
143 | COc1ccc(OC)c(NC(=O)CNC(=O)Cc2ccc(C(=O)c3ccc(C)cc3)n2C)c1 | 1470 mg/kg
144 | CN1C(=O)C2C3C=C(C(O)(c4ccccc4)c4ccccn4)C(C3=C(c3ccccc3)c3ccccn3)C2C1=O (stereo unspecified) | 12 mg/kg
145 | CC1(C)COC1=O | 1470 mg/kg
146 | N#Cc1ccc(N)cc1 | 283 mg/kg
